Experimental findings from US10793563B2, “GCN2 inhibitors and uses thereof” (Merck Patent GmbH, priority 2018, dated 2020) are described below.

Assay [1] deals with primary human pan T-cells. Description: Human IL-2 Assay for GCN2 Inhibition (IL-2 secretion from T cells in low amino acid condition). In kind it is cell-based. The following applies: IL-2 secretion from human T cells stimulated with anti-CD3/CD28 in low amino acid condition, ELISA, read-out: IL2/T-cell EC50. The text has this: Tumor microenvironment is profoundly immuno-suppressive. This may be attributed to the depletion of amino acids (like arginine and tryptophan) which triggers the activation of GCN2 in immune cells, including T cell and myeloid cells. In T cells, activation of GCN2 leads to reduce effector functions of CD8 T cells and induction and/or maintenance of immuno-suppressive T-regs. Inhibition of that immuno-suppressive response by GCN2 inhibitors enables an anti-cancer immune response by activating effector T-cells. Herein we describe an in-vitro system we established using human T-cells stimulated in low amino acid condition in order to engage the GCN2 biology. The method described involves the modulation of IL-2 levels secreted by human T cells in responses to the GCN2 inhibitors disclosed herein.
Amino acid-free RPMI was reconstituted with all but one of the amino acids found in standard RMPI (e.g. Arginine, Tryptophan), 10% charcoal-stripped fetal bovine serum, 100 Units/mL penicillin and 0.1 mg/mL streptomycin. Primary human pan T-cells were isolated using Pan T Cell Isolation Kit, human (MACS Miltenyi biotech Cat # Order no. 130-096-535) from apheresis cones and 5×104 pan T-cells per well. The purified T cells are seeded in Nunc™ 96-Well Polystyrene Round Bottom Microwell Plates (the cells are rested in No TRP media in a 15 ml falcon tube in the incubator for 30-45 minutes while titrations for tryptophan and the GCN2 inhibitor compound are made) A plate matrix was developed to titrate both a GCN2 inhibitor and the amino acid of interest ranging from “No Amino Acid” condition, up to the concentration found in the regular RPMI media (20 μM for TRP and 950 μM for Arginine). The cells were incubated for 30 min at 37° C. with the GCN2 inhibitor and then stimulated with 5×104 anti-CD3/CD28 Dynabeads® per well. After 96 hours of incubation the IL-2 level in the supernatant were measured using ELISA (R&D systems Cat # DY202 (Human IL-2 DuoSet ELISA). Data were plotted in GraphPad Prism software and EC50 is calculated.
(An ELISA detects its analyte on a solid surface through an enzyme-linked reagent.)

Assay [2] deals with intracellular GCN2 (phosphorylation of the GCN2 substrate eIF2α) (Homo sapiens (Human), UniProt Q9P2K8). Description: GCN2 Cellular Inhibition Assay (AlphaScreen SureFire P-eIF2α Ser51, borrelidin-treated U2OS cells). In kind it is cell-based. The following applies: 10 μM borrelidin, 1 h, phosphorylated eIF2α Ser51, read-out: GCN2 Biomarker (IC50). In a few lines: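 Phospho-eIF2α (Ser51) measured by AlphaScreen SureFire in lysates of U2OS cells stimulated 1 h at 37 °C with 10 μM borrelidin alongside compound, 4-fold dilutions from 40 μM. Inhibition expressed as percent relative to borrelidin-alone controls.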
Chain of intracellular GCN2 (phosphorylation of the GCN2 substrate eIF2α) (Q9P2K8 whole entry): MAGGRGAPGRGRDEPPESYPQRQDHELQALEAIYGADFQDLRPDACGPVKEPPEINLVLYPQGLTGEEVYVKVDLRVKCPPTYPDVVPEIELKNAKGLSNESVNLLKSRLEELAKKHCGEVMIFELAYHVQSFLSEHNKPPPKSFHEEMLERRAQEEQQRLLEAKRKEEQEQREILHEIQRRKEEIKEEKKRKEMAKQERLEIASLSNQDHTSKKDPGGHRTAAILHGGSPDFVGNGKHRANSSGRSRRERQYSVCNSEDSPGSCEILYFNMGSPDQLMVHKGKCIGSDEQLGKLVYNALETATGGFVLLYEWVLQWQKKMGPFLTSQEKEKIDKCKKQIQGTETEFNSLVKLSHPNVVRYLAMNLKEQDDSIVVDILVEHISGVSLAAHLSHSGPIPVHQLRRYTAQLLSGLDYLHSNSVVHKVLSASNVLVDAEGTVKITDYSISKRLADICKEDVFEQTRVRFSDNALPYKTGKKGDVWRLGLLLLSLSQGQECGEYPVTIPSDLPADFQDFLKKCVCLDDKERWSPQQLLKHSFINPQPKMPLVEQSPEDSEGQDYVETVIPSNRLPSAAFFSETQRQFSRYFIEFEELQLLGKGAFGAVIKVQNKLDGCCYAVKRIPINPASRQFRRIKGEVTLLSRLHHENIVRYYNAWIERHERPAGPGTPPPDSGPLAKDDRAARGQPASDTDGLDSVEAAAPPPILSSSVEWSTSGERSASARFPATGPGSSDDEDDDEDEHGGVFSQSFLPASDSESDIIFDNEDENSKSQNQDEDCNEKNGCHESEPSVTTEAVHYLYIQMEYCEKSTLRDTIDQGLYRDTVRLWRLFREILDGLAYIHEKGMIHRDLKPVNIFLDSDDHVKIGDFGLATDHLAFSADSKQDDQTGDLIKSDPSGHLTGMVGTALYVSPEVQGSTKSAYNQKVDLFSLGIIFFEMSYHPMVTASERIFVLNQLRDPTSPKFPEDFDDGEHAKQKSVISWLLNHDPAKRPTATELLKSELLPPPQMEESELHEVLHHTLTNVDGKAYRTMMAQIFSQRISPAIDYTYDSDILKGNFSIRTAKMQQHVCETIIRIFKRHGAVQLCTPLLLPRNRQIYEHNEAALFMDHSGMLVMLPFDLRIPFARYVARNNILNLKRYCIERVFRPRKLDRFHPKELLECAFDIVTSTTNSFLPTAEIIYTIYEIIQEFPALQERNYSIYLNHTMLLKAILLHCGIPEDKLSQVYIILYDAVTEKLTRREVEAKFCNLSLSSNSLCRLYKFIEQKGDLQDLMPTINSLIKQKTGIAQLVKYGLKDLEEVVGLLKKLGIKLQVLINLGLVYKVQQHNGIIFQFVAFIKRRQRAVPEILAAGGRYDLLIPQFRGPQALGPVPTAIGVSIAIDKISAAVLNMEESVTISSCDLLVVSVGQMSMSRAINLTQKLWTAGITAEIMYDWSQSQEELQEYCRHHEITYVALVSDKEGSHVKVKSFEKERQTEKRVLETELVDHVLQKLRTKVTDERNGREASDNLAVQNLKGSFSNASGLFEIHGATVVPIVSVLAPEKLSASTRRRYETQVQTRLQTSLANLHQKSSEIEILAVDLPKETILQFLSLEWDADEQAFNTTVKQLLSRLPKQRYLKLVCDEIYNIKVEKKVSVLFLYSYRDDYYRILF
On the technique in general: In Alpha technology, singlet oxygen from a donor bead excites a nearby acceptor bead.

A further assay addresses GCN2 kinase (Homo sapiens (Human), UniProt Q9P2K8). Description: GCN2 Enzyme Inhibition Assay (Transcreener ADP2 fluorescence polarization). The following applies: 280 μM ATP, 200 μM (RS)7 peptide, 4 nM GCN2, 25° C. It counts as biochemical. In a few lines:
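At 25 °C, GCN2 kinase (typical final concentration 4 nM) and (RS)7 peptide in Tris-HCl pH 7.5 buffer with MgCl2, NaCl and DTT were preincubated with compound for 10 min, then ATP was added for a 1 h reaction. ADP was read by FP with antibody/Alexa633 tracer. Non-linear tight-binding analysis gave IC50 and apparent Ki.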

Where two headings read alike, the source gives them in different places. Some results are limits rather than exact numbers.

Chain of GCN2 kinase (Q9P2K8 whole entry): as above

One may read the IC50 as the concentration that inhibits the measured activity by half. Take `Cc1[nH]ncc1[C@@H]1CN(c2nccc(-c3cnc4ccc(C(F)(F)F)cn34)n2)C[C@H](C)O1` [I-116]: the EC50 in assay [1] (Homo sapiens, T-cell, 96 h) was less than 100 nM. Moreover, in assay [2], the IC50 fell in the range of 500 to 5000 nM. `C[C@@H]1C[C@H](c2cn[nH]c2)CN(c2nccc(-c3cnc4ccc(C(F)(F)F)cn34)n2)C1` [I-136, 3-(2-((3R,5R)-3-Methyl-5-(1H-pyrazol-4-yl)piperidin-1-yl)pyrimidin-4-yl)-6-(trifluoromethyl)imidazo[1,2-a]pyridine]: the EC50 in assay [1] (Homo sapiens, T-cell, 96 h) was less than 100 nM; in assay [1] (96 hours), 100 to 500 nM. Besides, in assay [2], the IC50 is less than 500 nM.

Regarding `C[C@H]1C[C@@H](c2cn[nH]c2)CN(c2nccc(-c3cnc4ccc(C(F)(F)F)cn34)n2)C1` [I-137, 3-(2-((3S,5S)-3-Methyl-5-(1H-pyrazol-4-yl)piperidin-1-yl)pyrimidin-4-yl)-6-(trifluoromethyl)imidazo[1,2-a]pyridine], the EC50 in assay [1] (Homo sapiens, T-cell, 96 h) fell in the range of 100 to 500 nM. The IC50 in assay [2] is less than 500 nM.

Consider `Cc1n[nH]cc1C1CN(c2nccc(-c3cnc4ccc(Cl)cn34)n2)CC(C)O1` (stereo not drawn) [I-160, 4-(4-(6-chloroimidazo[1,2-a]pyridin-3-yl)pyrimidin-2-yl)-2-methyl-6-(3-methyl-1H-pyrazol-4-yl)morpholine], for which the EC50 in assay [1] (Homo sapiens, T-cell, 96 h) lay within 100 to 500 nM. Further, the IC50 on GCN2 kinase was less than 10 nM. For the compound `C[C@H]1[C@H](c2cn[nH]c2)N(CC2(C)COC2)CCN1c1ccnc(-c2cnc3ccc(C(F)(F)F)cn23)n1` [I-482, 3-(4-((2 S,3 S)-2-methyl-4-((3-methyloxetan-3-yl)methyl)-3-(1H-pyrazol-4-yl)piperazin-1-yl)pyrimidin-2-yl)-6-(trifluoromethyl)imidazo[1,2-a]pyridine], the EC50 in assay [1] (Homo sapiens, T-cell, 96 h) was more than 500 nM. Also, the IC50 against GCN2 kinase lay in the range of 10 to 100 nM. Regarding `C[C@H]1[C@@H](CNS(C)(=O)=O)N(C2CC2)CCN1c1nccc(-c2cnc3ccc(C(F)(F)F)cn23)n1` [I-541, N-(((2R,3 S)-1-cyclopropyl-3-methyl-4-(4-(6-(trifluoromethyl)imidazo[1,2-a]pyridin-3-yl)pyrimidin-2-yl)piperazin-2-yl)methyl)methanesulfonamide], the IC50 fell in the range of 100 to 1000 nM against GCN2 kinase and 500 to 5000 nM in assay [2]. For `C[C@@H]1[C@H](CNS(C)(=O)=O)N(C2CC2)CCN1c1nccc(-c2cnc3ccc(C(F)(F)F)cn23)n1` [I-543, N-{(2S,3R)-1-Cyclopropyl-3-methyl-4-[4-(6-trifluoromethyl-imidazo[1,2-a]pyridin-3-yl)-pyrimidin-2-yl]-piperazin-2-ylmethyl}-methanesulfonamide], in that order: less than 10 nM and less than 500 nM. As for `FC(F)(F)c1ccc2ncc(-c3ccnc(N4CCN(C[C@@H]5CCCOC5)[C@H](c5cn[nH]c5)C4)n3)n2c1` [I-544, 3-(2-((R)-3-(1H-pyrazol-4-yl)-4-(((S)-tetrahydro-2H-pyran-3-yl)methyl)piperazin-1-yl)pyrimidin-4-yl)-6-(trifluoromethyl)imidazo[1,2-a]pyridine], the IC50 is less than 10 nM against GCN2 kinase and less than 500 nM in assay [2].

`FC(F)(F)c1ccc2ncc(-c3ccnc(N4CCN(C[C@H]5CCCOC5)[C@H](c5cn[nH]c5)C4)n3)n2c1` [I-545, 3-(2-((R)-3-(1H-pyrazol-4-yl)-4-(((R)-tetrahydro-2H-pyran-3-yl)methyl)piperazin-1-yl)pyrimidin-4-yl)-6-(trifluoromethyl)imidazo[1,2-a]pyridine]: the IC50 is less than 10 nM against GCN2 kinase and less than 500 nM in assay [2].

`FC(F)(F)c1ccc2ncc(-c3ccnc(N4CCN(C[C@@H]5CCCOC5)[C@@H](c5cn[nH]c5)C4)n3)n2c1` [I-546, 3-(2-((S)-3-(1H-pyrazol-4-yl)-4-(((S)-tetrahydro-2H-pyran-3-yl)methyl)piperazin-1-yl)pyrimidin-4-yl)-6-(trifluoromethyl)imidazo[1,2-a]pyridine]: the IC50 on GCN2 kinase is less than 10 nM; in assay [2] it was less than 500 nM. Regarding `C[C@@H]1[C@H](C(N)=O)N(C2CC2)CCN1c1ccnc(-c2cnc3ccc(Cl)cn23)n1` [I-547, (2R,3R)-4-(2-(6-chloroimidazo[1,2-a]pyridin-3-yl)pyrimidin-4-yl)-1-cyclopropyl-3-methylpiperazine-2-carboxamide], the EC50 in assay [1] (Homo sapiens, T-cell, 96 h) lay in the range of 100 to 500 nM.

Turning to `NC(=O)[C@H]1CCCN(c2ccnc(-c3cnc4cc(F)c(Cl)cn34)n2)C1` [I-558, (S)-1-(2-(6-chloro-7-fluoroimidazo[1,2-a]pyridin-3-yl)pyrimidin-4-yl)piperidine-3-carboxamide], the EC50 in assay [1] (Homo sapiens, T-cell, 96 h) fell in the range of 100 to 500 nM.

`C[C@@H]1C[C@@H](c2cn[nH]c2)CN(c2ccnc(-c3cnc4ccc(Cl)cn34)n2)C1` [I-559, 6-chloro-3-(4-((3R,5S)-3-methyl-5-(1H-pyrazol-4-yl)piperidin-1-yl)pyrimidin-2-yl)imidazo[1,2-a]pyridine]: in assay [1] (Homo sapiens, T-cell, 96 h), the EC50 was less than 100 nM. Take `Cc1[nH]ncc1[C@H]1CN(c2ccnc(-c3cnc4ccc(Cl)cn34)n2)C[C@@H](C)O1` [I-561, (2R,6S)-4-(2-(6-chloroimidazo[1,2-a]pyridin-3-yl)pyrimidin-4-yl)-2-methyl-6-(5-methyl-1H-pyrazol-4-yl)morpholine]: the EC50 in assay [1] (Homo sapiens, T-cell, 96 h) lay in the range of 100 to 500 nM. Still for that read-out and setting: to `C[C@H]1CN(c2ccnc(-c3cnc4ccc(C(F)(F)F)cn34)n2)C[C@@H](C(N)=O)O1` [I-562, (2S,6S)-6-methyl-4-(2-(6-(trifluoromethyl)imidazo[1,2-a]pyridin-3-yl)pyrimidin-4-yl)morpholine-2-carboxamide] belongs 100 to 500 nM; to `C[C@H]1CN(c2ccnc(-c3cnc4ccc(Cl)cn34)n2)[C@@H](C)[C@@H](c2cn[nH]c2)N1` [I-563, 6-chloro-3-(4-((2S,3R,5S)-2,5-dimethyl-3-(1H-pyrazol-4-yl)piperazin-1-yl)pyrimidin-2-yl)imidazo[1,2-a]pyridine], 100 to 500 nM. Same read-out and setting: to `C[C@@H]1CN(c2ccnc(-c3cnc4ccc(C(F)(F)F)cn34)n2)C[C@H](c2cn[nH]c2)O1` [I-564, (2R,6S)-2-methyl-6-(1H-pyrazol-4-yl)-4-(2-(6-(trifluoromethyl)imidazo[1,2-a]pyridin-3-yl)pyrimidin-4-yl)morpholine] belongs less than 100 nM; to `C[C@@H]1[C@H](c2cn[nH]c2)N(C2COC2)CCN1c1ccnc(-c2cnc3ccc(C(F)(F)F)cn23)n1` [I-565, 3-(4-((2R,3 S)-2-methyl-4-(oxetan-3-yl)-3-(1H-pyrazol-4-yl)piperazin-1-yl)pyrimidin-2-yl)-6-(trifluoromethyl)imidazo[1,2-a]pyridine], less than 100 nM. Same read-out and setting: to `C[C@@H]1CN(c2ccnc(-c3cnc4ccc(Cl)cn34)n2)C[C@H](c2cn[nH]c2)O1` [I-566, (2R,6S)-4-(2-(6-chloroimidazo[1,2-a]pyridin-3-yl)pyrimidin-4-yl)-2-methyl-6-(1H-pyrazol-4-yl)morpholine] belongs less than 100 nM; to `C[C@@H]1C[C@@H](c2cn[nH]c2)CN(c2ccnc(-c3cnc4ccc(C(F)(F)F)cn34)n2)C1` [I-567, 3-(4-((3R,5S)-3-methyl-5-(1H-pyrazol-4-yl)piperidin-1-yl)pyrimidin-2-yl)-6-(trifluoromethyl)imidazo[1,2-a]pyridine], less than 100 nM; to `C[C@H]1CN(c2ccnc(-c3cnc4cc(F)c(Cl)cn34)n2)C[C@@H](c2cn[nH]c2)O1` [I-568, (2S,6R)-4-(2-(6-chloro-7-fluoroimidazo[1,2-a]pyridin-3-yl)pyrimidin-4-yl)-2-methyl-6-(1H-pyrazol-4-yl)morpholine], 100 to 500 nM. Regarding `C[C@@H]1C[C@@H](N=S(C)(C)=O)CN(c2ccnc(-c3cnc4ccc(C(F)F)cn34)n2)C1` [I-569, (((3R,5R)-1-(2-(6-(difluoromethyl)imidazo[1,2-a]pyridin-3-yl)pyrimidin-4-yl)-5-methylpiperidin-3-yl)imino)dimethyl-λ6-sulfanone], the EC50 in assay [1] (Homo sapiens, T-cell, 96 h) is 100 to 500 nM.
